Data as given in BindingDB's records for doi:10.1016/j.ejmech.2019.07.019 (Isf College of Pharmacy, 2019).

Key:
[1] = Inhibition of HIV1 3B Y181C mutant infected in human MT2 cells assessed as reduction in virus-induced cytopathogenicity after 3 days by BrightGlo luciferase reporter gene assay
[2] = Inhibition of HIV1 reverse transcriptase Y181C/K103N double mutant infected in human MT4 cells assessed as reduction in virus-induced cytopathogenicity

| Compound | IC50 [1] [µM] | IC50 [2] [µM] |
| --- | --- | --- |
| CCCCC(O)(c1c(NC(=O)OCC)[nH]c2ccc(Br)cc12)C(F)(F)F (configuration not stated) | 1.93 | – |
| COP(=O)(c1cc(C)cc(/C=C/C#N)c1)c1c(C(N)=O)[nH]c2ccc(Cl)cc12 (configuration not stated) [IDX899] | – | 11 |
